Activity calls are given as the source filed them.
Assays:
Assay type in all cases: functional
[1] = biological target: High affinity nerve growth factor receptor (Homo sapiens, UniProt P04629);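 further: NTRK1 tested as one member of a kinome-wide profiling panel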
[2] = biological target: Dual specificity tyrosine-phosphorylation-regulated kinase 1A (Homo sapiens, UniProt Q13627);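 further: measured against DYRK1A as one member of a broad kinome profiling panel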
[3] = biological target: Serine/threonine-protein kinase PAK 4 (Homo sapiens, UniProt O96013);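 further: value obtained within a kinome profiling panel in which PAK4 was one of the panel members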
[4] = biological target: Dual specificity tyrosine-phosphorylation-regulated kinase 1B (Homo sapiens, UniProt Q9Y463); assay: Navigating the Kinome. Panel member name: DYRK1B
[5] = biological target: Calcium/calmodulin-dependent protein kinase type II subunit alpha (Homo sapiens, UniProt Q9UQM7); assay: Navigating the Kinome. Panel member name: CAMK2A
[6] = biological target: Tyrosine-protein kinase receptor TYRO3 (Homo sapiens, UniProt Q06418);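 further: TYRO3 value obtained as one member of a kinome-wide profiling panel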
[7] = biological target: Glycogen synthase kinase-3 beta (Homo sapiens, UniProt P49841);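 further: value comes from a broad kinome profiling panel, with GSK3B as the panel member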
Activated CDC42 kinase 1 = Activated CDC42 kinase 1 (Homo sapiens, UniProt Q07912); assay: Navigating the Kinome. Panel member name: ACK1
[8] = biological target: Proto-oncogene tyrosine-protein kinase receptor Ret (Homo sapiens, UniProt P07949);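 further: measured within a kinome-wide profiling panel, RET as the panel member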
[9] = biological target: Rho-associated protein kinase 1 (Homo sapiens, UniProt Q13464);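 further: measured within a broad kinome-wide panel profiling many kinases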
[10] = biological target: Macrophage colony-stimulating factor 1 receptor (Homo sapiens, UniProt P07333);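 further: value comes from the Navigating the Kinome screening panel, CSF1R member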
[11] = biological target: Dual specificity protein kinase CLK4 (Homo sapiens, UniProt Q9HAZ1)
[12] = biological target: Tyrosine-protein kinase BTK (Homo sapiens, UniProt Q06187)
[13] = biological target: Mitogen-activated protein kinase kinase kinase kinase 4 (Homo sapiens, UniProt O95819)
[14] = biological target: Inhibitor of nuclear factor kappa-B kinase subunit epsilon (Homo sapiens, UniProt Q14164); assay: Navigating the Kinome. Panel member name: IKBKE
[15] = biological target: Fibroblast growth factor receptor 1 (Homo sapiens, UniProt P11362)
[16] = biological target: Cyclin-dependent kinase 8 (Homo sapiens, UniProt P49336); assay: Navigating the Kinome. Panel member name: CDK8
[17] = biological target: Vascular endothelial growth factor receptor 1 (Homo sapiens, UniProt P17948);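 further: measured within a kinome-wide profiling panel, FLT1 as the panel member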
[18] = biological target: ALK tyrosine kinase receptor (Homo sapiens, UniProt Q9UM73);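 further: ALK tested as one member of a kinase panel screen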
[19] = biological target: Tyrosine-protein kinase ABL1 (Homo sapiens, UniProt P00519)
[20] = biological target: Platelet-derived growth factor receptor alpha (Homo sapiens, UniProt P16234); assay: Navigating the Kinome. Panel member name: PDGFRA
[21] = biological target: Macrophage-stimulating protein receptor (Homo sapiens, UniProt Q04912); assay: Navigating the Kinome. Panel member name: MST1R
[22] = biological target: Serine/threonine-protein kinase pim-1 (Homo sapiens, UniProt P11309)
[23] = biological target: Mitogen-activated protein kinase 8 (Homo sapiens, UniProt P45983);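 further: value comes from one member of a kinome-wide kinase profiling panel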
[24] = biological target: Serine/threonine-protein kinase D3 (Homo sapiens, UniProt O94806);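 further: determined within a kinase panel screen, with PRKCN as the panel member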
[25] = biological target: Cyclin-dependent kinase 9 (Homo sapiens, UniProt P50750);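 further: value from the CDK9 entry of a kinome-spanning kinase panel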
[26] = biological target: cAMP-dependent protein kinase catalytic subunit alpha (Homo sapiens, UniProt P17612)
[27] = biological target: Leukocyte tyrosine kinase receptor (Homo sapiens, UniProt P29376); assay: Navigating the Kinome. Panel member name: LTK
[28] = biological target: Casein kinase I isoform alpha (Homo sapiens, UniProt P48729)
[29] = biological target: Serine/threonine-protein kinase Chk1 (Homo sapiens, UniProt O14757);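 further: measured as one member of a kinome-wide kinase profiling panel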
[30] = biological target: Protein kinase C theta type (Homo sapiens, UniProt Q04759); assay: Navigating the Kinome. Panel member name: PRKCQ
[31] = biological target: Dual specificity mitogen-activated protein kinase kinase 1 (Homo sapiens, UniProt Q02750); assay: Navigating the Kinome. Panel member name: MAP2K1
[32] = biological target: 5'-AMP-activated protein kinase catalytic subunit alpha-1 (Homo sapiens, UniProt Q13131)
[33] = biological target: Insulin-like growth factor 1 receptor (Homo sapiens, UniProt P08069); assay: Navigating the Kinome. Panel member name: IGF1R
[34] = biological target: Cyclin-dependent kinase 5 (Homo sapiens, UniProt Q00535);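 further: CDK5 measured as one member of a kinase profiling panel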
[35] = biological target: Serine/threonine-protein kinase TBK1 (Homo sapiens, UniProt Q9UHD2); assay: Navigating the Kinome. Panel member name: TBK1
Aurora kinase A = Aurora kinase A (Homo sapiens, UniProt O14965);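 further: value from the Navigating the Kinome kinase panel profiling, panel entry STK6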
[36] = biological target: Receptor-type tyrosine-protein kinase FLT3 (Homo sapiens, UniProt P36888);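 further: FLT3 was tested as one member of a kinome-wide kinase panel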
[37] = biological target: Tyrosine-protein kinase Fyn (Homo sapiens, UniProt P06241)
Aurora kinase B = Aurora kinase B (Homo sapiens, UniProt Q96GD4)
LIM domain kinase 1 = LIM domain kinase 1 (Homo sapiens, UniProt P53667); assay: Navigating the Kinome. Panel member name: LIMK1
[38] = biological target: Death-associated protein kinase 3 (Homo sapiens, UniProt O43293);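 further: measured as one member of a kinome-wide profiling panel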
[39] = biological target: Glycogen synthase kinase-3 alpha (Homo sapiens, UniProt P49840);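 further: GSK3A result taken from a broad kinome-wide kinase panel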
Activin receptor type-1 = Activin receptor type-1 (Homo sapiens, UniProt Q04771); assay: Navigating the Kinome. Panel member name: ACVR1
[40] = biological target: Serine/threonine-protein kinase Nek2 (Homo sapiens, UniProt P51955)
[41] = biological target: cAMP-dependent protein kinase catalytic subunit PRKX (Homo sapiens, UniProt P51817)
[42] = biological target: Mitogen-activated protein kinase kinase kinase kinase 2 (Homo sapiens, UniProt Q12851);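 further: measured as one member of a kinome-wide kinase panel, with MAP4K2 as the panel entry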
[43] = biological target: Dual specificity protein kinase CLK2 (Homo sapiens, UniProt P49760)
[44] = biological target: Leucine-rich repeat serine/threonine-protein kinase 2 (Homo sapiens, UniProt Q5S007);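 further: value from a broad kinome-wide panel profiling study in which LRRK2 was one of the kinases tested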
[45] = biological target: Hepatocyte growth factor receptor (Homo sapiens, UniProt P08581);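 further: kinase panel profiling across the kinome, with MET as the panel member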
[46] = biological target: Cyclin-dependent kinase 7 (Homo sapiens, UniProt P50613);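 further: value comes from a kinome-wide kinase profiling panel in which CDK7 is one member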
[47] = biological target: BDNF/NT-3 growth factors receptor (Homo sapiens, UniProt Q16620);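 further: NTRK2 measured as one member of a broad kinome-wide kinase profiling panel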
[48] = biological target: Tyrosine-protein kinase JAK2 (Homo sapiens, UniProt O60674);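 further: JAK2 tested as one member of a kinase panel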
[49] = biological target: Mast/stem cell growth factor receptor Kit (Homo sapiens, UniProt P10721);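 further: KIT entry within a kinase panel assay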
[50] = biological target: Serine/threonine-protein kinase 17A (Homo sapiens, UniProt Q9UEE5)
[51] = biological target: Tyrosine-protein kinase Blk (Homo sapiens, UniProt P51451);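 further: obtained as one member of a kinome-wide kinase assay panel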
[52] = biological target: Vascular endothelial growth factor receptor 2 (Homo sapiens, UniProt P35968)
[53] = biological target: Fibroblast growth factor receptor 3 (Homo sapiens, UniProt P22607)
[54] = biological target: Tyrosine-protein kinase JAK3 (Homo sapiens, UniProt P52333)
[55] = biological target: Vascular endothelial growth factor receptor 3 (Homo sapiens, UniProt P35916);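 further: value from a kinome-wide profiling panel, with FLT4 as the panel member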
[56] = biological target: Homeodomain-interacting protein kinase 4 (Homo sapiens, UniProt Q8NE63)
[57] = biological target: G protein-coupled receptor kinase 5 (Homo sapiens, UniProt P34947); assay: Navigating the Kinome. Panel member name: GPRK5
[58] = biological target: Casein kinase II subunit alpha (Homo sapiens, UniProt P68400)
[59] = biological target: Tyrosine-protein kinase receptor UFO (Homo sapiens, UniProt P30530)
[60] = biological target: Protein kinase C gamma type (Homo sapiens, UniProt P05129)
[61] = biological target: Homeodomain-interacting protein kinase 2 (Homo sapiens, UniProt Q9H2X6);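 further: measured within a kinome-wide kinase profiling panel, HIPK2 being one panel member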

Measured: Ki

Sequence of Tyrosine-protein kinase receptor TYRO3 (Q06418 whole entry): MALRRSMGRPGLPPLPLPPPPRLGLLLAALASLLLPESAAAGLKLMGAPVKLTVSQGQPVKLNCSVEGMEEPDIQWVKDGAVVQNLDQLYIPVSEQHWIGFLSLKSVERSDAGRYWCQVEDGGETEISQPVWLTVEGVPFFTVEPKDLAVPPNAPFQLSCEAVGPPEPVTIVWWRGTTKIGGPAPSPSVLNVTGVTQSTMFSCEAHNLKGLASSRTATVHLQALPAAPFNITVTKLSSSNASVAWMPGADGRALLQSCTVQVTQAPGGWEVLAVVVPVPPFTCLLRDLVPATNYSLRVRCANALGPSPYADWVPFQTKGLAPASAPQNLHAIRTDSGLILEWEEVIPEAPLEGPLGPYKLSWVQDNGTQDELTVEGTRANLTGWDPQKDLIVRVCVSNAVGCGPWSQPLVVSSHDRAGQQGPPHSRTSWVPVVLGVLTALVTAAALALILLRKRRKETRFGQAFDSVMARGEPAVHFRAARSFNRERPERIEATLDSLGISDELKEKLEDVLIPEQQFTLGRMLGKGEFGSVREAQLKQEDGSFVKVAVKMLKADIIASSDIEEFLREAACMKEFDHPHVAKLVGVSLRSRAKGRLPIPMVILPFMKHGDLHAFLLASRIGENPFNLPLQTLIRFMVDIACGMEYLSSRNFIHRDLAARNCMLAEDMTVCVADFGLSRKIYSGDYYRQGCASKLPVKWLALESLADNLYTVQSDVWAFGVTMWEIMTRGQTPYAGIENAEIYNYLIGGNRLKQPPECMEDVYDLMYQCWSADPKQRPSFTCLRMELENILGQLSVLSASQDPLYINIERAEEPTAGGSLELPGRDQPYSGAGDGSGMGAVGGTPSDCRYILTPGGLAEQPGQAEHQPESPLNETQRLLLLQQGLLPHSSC
Sequence of Platelet-derived growth factor receptor alpha (P16234 whole entry): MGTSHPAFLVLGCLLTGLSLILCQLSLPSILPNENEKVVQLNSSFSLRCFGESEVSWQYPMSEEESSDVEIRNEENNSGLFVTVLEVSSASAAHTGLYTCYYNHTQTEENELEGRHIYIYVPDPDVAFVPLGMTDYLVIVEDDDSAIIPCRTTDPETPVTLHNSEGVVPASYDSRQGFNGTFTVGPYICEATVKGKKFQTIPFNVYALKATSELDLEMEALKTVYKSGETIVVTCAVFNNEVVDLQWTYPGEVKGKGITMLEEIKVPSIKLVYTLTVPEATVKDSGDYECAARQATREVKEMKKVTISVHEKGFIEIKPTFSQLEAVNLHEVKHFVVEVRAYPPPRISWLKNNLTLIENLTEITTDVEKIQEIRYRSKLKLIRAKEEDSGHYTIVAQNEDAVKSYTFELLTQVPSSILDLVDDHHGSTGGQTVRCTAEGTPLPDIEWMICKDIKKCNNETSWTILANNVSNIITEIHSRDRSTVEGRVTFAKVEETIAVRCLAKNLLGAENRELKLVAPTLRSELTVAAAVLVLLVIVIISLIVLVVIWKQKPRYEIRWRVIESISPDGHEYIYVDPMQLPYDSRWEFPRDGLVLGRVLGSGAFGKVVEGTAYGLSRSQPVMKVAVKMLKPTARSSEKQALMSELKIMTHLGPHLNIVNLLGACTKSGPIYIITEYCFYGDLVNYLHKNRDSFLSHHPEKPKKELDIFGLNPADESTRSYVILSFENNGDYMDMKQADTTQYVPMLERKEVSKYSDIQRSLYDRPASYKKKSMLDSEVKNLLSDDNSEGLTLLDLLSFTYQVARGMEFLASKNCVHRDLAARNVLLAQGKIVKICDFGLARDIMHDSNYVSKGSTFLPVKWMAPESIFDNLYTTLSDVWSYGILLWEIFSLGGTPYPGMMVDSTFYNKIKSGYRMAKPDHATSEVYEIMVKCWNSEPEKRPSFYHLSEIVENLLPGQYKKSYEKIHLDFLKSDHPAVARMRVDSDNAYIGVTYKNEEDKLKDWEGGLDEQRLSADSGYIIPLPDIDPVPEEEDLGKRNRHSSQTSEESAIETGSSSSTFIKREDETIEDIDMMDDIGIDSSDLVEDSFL
Sequence of Macrophage colony-stimulating factor 1 receptor (P07333 whole entry): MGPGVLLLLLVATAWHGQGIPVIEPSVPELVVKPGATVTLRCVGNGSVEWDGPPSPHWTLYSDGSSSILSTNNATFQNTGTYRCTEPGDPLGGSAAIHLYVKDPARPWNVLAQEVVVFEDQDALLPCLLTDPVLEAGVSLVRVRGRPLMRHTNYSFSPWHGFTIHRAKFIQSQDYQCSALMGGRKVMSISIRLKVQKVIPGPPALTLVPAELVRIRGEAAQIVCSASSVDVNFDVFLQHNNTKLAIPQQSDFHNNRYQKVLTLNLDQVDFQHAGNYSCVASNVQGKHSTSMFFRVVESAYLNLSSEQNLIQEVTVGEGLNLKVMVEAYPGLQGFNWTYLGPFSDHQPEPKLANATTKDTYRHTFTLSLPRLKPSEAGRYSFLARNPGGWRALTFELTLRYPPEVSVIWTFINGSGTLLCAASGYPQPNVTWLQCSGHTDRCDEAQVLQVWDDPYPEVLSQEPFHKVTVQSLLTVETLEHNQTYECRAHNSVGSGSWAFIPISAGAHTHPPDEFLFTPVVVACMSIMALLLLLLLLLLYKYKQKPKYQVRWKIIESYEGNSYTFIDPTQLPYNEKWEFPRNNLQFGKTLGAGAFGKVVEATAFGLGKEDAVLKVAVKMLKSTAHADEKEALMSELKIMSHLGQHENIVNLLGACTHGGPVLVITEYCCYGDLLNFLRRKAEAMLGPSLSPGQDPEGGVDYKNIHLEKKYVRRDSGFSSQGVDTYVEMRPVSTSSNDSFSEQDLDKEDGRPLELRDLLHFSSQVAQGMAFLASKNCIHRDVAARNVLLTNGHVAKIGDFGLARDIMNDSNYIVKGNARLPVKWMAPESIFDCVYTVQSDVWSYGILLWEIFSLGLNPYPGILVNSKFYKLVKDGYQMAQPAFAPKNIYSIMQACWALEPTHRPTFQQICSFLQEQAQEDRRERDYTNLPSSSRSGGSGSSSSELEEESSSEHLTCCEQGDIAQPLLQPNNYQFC
Sequence of Cyclin-dependent kinase 8 (P49336 whole entry): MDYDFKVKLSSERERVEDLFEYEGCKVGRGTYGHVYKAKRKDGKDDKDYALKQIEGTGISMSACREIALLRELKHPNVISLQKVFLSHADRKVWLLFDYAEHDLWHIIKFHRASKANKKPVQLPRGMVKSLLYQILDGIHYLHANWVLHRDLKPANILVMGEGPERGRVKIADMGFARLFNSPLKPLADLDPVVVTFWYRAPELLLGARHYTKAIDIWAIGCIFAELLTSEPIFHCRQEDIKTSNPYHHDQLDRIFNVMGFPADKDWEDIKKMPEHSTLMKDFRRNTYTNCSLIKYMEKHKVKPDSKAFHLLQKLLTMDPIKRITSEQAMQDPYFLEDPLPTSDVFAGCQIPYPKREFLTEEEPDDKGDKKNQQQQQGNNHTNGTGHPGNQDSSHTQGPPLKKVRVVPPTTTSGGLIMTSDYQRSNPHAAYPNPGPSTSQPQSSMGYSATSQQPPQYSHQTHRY
Sequence of Vascular endothelial growth factor receptor 1 (P17948 whole entry): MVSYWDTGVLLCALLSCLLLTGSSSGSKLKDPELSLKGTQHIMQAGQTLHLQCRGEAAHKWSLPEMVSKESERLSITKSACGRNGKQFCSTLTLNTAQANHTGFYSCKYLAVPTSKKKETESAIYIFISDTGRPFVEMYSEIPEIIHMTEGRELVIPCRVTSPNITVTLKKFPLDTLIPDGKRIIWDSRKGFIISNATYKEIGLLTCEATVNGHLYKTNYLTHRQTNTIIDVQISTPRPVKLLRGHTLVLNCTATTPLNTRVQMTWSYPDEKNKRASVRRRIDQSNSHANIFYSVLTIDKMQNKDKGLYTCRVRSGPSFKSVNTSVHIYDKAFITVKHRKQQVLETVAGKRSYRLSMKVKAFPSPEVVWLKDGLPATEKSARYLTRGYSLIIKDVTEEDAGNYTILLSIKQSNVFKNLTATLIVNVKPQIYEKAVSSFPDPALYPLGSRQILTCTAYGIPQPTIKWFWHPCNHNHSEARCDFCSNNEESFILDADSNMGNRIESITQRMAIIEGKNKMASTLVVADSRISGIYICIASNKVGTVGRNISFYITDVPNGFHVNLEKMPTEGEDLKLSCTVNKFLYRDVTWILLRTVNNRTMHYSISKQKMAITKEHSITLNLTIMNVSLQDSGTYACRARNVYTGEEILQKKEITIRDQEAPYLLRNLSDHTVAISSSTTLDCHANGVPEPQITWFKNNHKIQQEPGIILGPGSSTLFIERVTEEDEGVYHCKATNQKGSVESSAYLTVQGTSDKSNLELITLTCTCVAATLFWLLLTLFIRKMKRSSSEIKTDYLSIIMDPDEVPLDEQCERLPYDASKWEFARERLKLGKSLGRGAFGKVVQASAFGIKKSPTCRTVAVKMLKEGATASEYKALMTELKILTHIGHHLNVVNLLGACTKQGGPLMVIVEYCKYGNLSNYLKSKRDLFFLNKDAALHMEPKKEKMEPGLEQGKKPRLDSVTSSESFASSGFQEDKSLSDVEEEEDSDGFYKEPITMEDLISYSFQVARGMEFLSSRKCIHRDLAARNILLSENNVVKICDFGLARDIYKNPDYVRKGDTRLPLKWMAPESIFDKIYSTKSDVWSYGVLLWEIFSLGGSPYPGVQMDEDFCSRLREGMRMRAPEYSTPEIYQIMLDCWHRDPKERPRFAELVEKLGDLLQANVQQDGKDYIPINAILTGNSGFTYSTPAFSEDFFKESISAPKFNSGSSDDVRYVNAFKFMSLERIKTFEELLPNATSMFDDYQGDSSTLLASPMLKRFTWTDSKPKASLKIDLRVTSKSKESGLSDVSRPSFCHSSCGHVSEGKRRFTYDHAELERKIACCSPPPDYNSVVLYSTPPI
Sequence of Serine/threonine-protein kinase pim-1 (P11309 whole entry): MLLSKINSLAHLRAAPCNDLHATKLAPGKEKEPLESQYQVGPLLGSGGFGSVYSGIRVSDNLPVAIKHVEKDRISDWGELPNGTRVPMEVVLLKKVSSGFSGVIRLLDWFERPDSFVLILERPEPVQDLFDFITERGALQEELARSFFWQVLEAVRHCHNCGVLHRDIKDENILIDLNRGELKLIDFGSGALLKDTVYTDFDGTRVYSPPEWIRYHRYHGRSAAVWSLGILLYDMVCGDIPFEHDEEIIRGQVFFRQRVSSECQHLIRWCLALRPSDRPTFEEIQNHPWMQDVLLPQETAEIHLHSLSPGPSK

Nc1cc(=O)[nH]n1-c1ccccn1
active: [1] 15.8 µM | [2] 2 µM | [3] 63.1 µM | [4] 3.98 µM | [5] 15.8 µM | [6] 7.94 µM | [7] 20 µM | Activated CDC42 kinase 1 50.1 µM | [8] 12.6 µM | [9] 79.4 µM | [10] 15.8 µM | [11] 0.501 µM | [12] 31.6 µM | [13] 63.1 µM | [14] 15.8 µM | [15] 31.6 µM | [16] 5.01 µM | [17] 20 µM | [18] 31.6 µM | [19] 12.6 µM | [20] 12.6 µM | [21] 50.1 µM | [22] 50.1 µM | [23] 31.6 µM | [24] 10 µM | [25] 3.98 µM | [26] 15.8 µM | [27] 3.98 µM | [28] 20 µM | [29] 2.51 µM | [30] 20 µM | [31] 79.4 µM | [32] 15.8 µM | [33] 79.4 µM | [34] 6.31 µM | [35] 7.94 µM | Aurora kinase A 7.94 µM | [36] 15.8 µM | [37] 50.1 µM | Aurora kinase B 25.1 µM | LIM domain kinase 1 1.58 µM | [38] 20 µM | [39] 31.6 µM | Activin receptor type-1 15.8 µM | [40] 3.16 µM | [41] 10 µM | [42] 10 µM | [43] 50.1 µM | [44] 6.31 µM | [45] 6.31 µM | [46] 20 µM | [47] 100 µM

CN1CCN(c2ccc(C(=O)Nc3n[nH]c4ccc(Cc5cc(F)cc(F)c5)cc34)c(NC3CCOCC3)c2)CC1 [ENTRECTINIB]
inactive: [50] > 3.16 µM | [4] > 2.51 µM | [5] > 3.98 µM | [6] > 3.16 µM | [16] > 3.98 µM | [20] > 2.51 µM | [56] > 7.94 µM | [58] > 6.31 µM
active: [48] 0.02 µM | [49] 0.158 µM | [51] 0.2 µM | [52] 0.398 µM | [10] 0.0398 µM | [53] 0.158 µM | [17] 0.794 µM | [54] 0.501 µM | [27] 0.00158 µM | [55] 0.2 µM | [57] 2.51 µM | [59] 0.0398 µM | [38] 2.51 µM | [60] 0.631 µM | [61] 1.58 µM | [44] 2.51 µM
